# Measured values: US20140093903A1, “METHODS FOR DIAGNOSIS, PROGNOSIS AND METHODS OF TREATMENT” (Nodality, Inc., priority 2012, published 2014)
# How the values were obtained:
# CLL cells [1] = conditions: inhibition of AKT phosphorylation by the PI3K inhibitor; cited from earlier work
# CLL B cells = experiment: SCNP phospho-flow: H2O2-modulated BCR signaling, CLL samples; format: cell-based, human; conditions: after exposure to H2O2
# Description: Cryopreserved PBMCs, 23 from CLL patients and 7 from healthy donors, were rapidly thawed in a 37° C. water bath. 1 mL of pre-warmed thawing media (PBS 1% FBS, 2 mM EDTA) was added dropwise to each of the cryovials. […] Supernatant was decanted, cell pellets were resuspended in 1 mL RPMI 1640 1% FCS and filtered over 70 um nylon mesh (BD Falcon) to remove cell clumps and debris. 11 mL of additional RPMI 1640 1% FCS was added to the samples to wash. A 20 uL aliquot was removed from each sample and placed into a solution of PBS 4% FCS CD45 Alexa Flour 700 and Propidium Iodide for viability and counting on a BDLSRII cytometer.
# At the end of the 10 minute incubation […] 5.6% PFA (final 1.6%) was added to each well to fix the cells.
# At the end of the 10 minute incubation 200 uL 5.6% PFA (final 1.6%) was added to each well to fix the cells.
# Cells were permeabilized by adding 600 µL of ice cold 100% methanol to each well using the Costar 96-channel pipettor (Costar). […]
# To test whether phenotypic characterization of CLL physiology could be discerned based on responses of cells to extracellular stimuli, modulated BCR intracellular signaling was determined either in response to anti-μ (ligand-dependent) or post H2O2 treatment to evaluate the contribution of tonic signaling (ligand-independent) to BCR output. […]
# healthy B cells = system: healthy B cells
# Description: Cryopreserved PBMCs, 23 from CLL patients and 7 from healthy donors, were rapidly thawed in a 37° C. water bath. 1 mL of pre-warmed thawing media (PBS 1% FBS, 2 mM EDTA) was added dropwise to each of the cryovials. Thawed cells were transferred to a tube containing 8 mL thawing media. Tubes were inverted and centrifuged at 200×g for 8 minutes at room temperature. Supernatant was decanted, cell pellets were resuspended in 1 mL RPMI 1640 1% FCS and filtered over 70 um nylon mesh (BD Falcon) to remove cell clumps and debris. 11 mL of additional RPMI 1640 1% FCS was added to the samples to wash. A 20 uL aliquot was removed from each sample and placed into a solution of PBS 4% FCS CD45 Alexa Flour 700 and Propidium Iodide for viability and counting on a BDLSRII cytometer. The remaining volume of cell suspension was centrifuged at 200×g for 8 minutes at room temperature
# For single agent modulators 150 μL of 10× solutions were arrayed into wells of a 96-well v-bottom plate (Nunc). Corresponding daughter plates were taken from the 37° C. incubator, and […] of RPMI1640 1% FCS was added to each well using the Liquidator 96-well pipettor. […] The daughter plates were pulse vortexed for 5 seconds and placed into a 37° C. water bath for 10 minutes.
# Corresponding daughter plates were taken from the 37° C. incubator. […]
# Antibody cocktails for signaling and apoptosis readouts were prepared in FACS Buffer. […]
# CLL cells [2] = conditions: in vitro treatment; Buchner 2009, Gobessi 2009; cited from earlier work
# CD19+CD5+ CLL cells [3] = experiment: SCNP drug-induced signaling, Example 2 (4 and 24 hours); format: cell-based, human
# Description: Peripheral blood mononuclear cells (PBMCs) were obtained from 29 patients with CLL treated on a clinical trial at “La Sapienza” University of Rome between November 2008 and January 2010 at the time of but prior to the initiation of first treatment. All patients provided informed consent for research purposes. SCNP assays were performed blinded to clinical outcomes. […] SCNP analysis was performed to quantitatively measure 18 intracellular signaling proteins within CD19+CD5+ CLL cells using a panel of 14 disease-relevant modulators (FIG. 27) as follows:
# SCNP analysis was performed to quantitatively measure intracellular signaling proteins within CD19+CD5+ CLL cells using a panel of disease-relevant modulators. First, the cryopreserved PBMC samples were thawed at 37° C., stained for viability with Amine Aqua (Invitrogen, Carlsbad, Calif.), resuspended in RPMI with 10% FBS and aliquoted at 100,000 cells per well 96-deepwell plates. Cells were rested for 2 hours at 37° C. followed by modulation. Short duration modulation was performed for 10 minutes at 37° C. with the following modulators: 20 μg/mL polyclonal goat F(ab′)2 anti-human IgM (Southern Biotech, Birmingham, Ala.), 5 μg/mL monoclonal anti-human IgD (BD Biosciences, San Jose, Calif.), 10 ng/mL of SDF1□ (R&D Systems, Minneapolis, Minn.), and the combination of 20 μg/mL polyclonal goat F(ab′)2 anti-human IgM and 10 ng/mL of SDF1□□□15 minute modulations were performed for the following: 0.5 μg/mL CD40L (R&D Systems, Minneapolis, Minn.), 50 ng/mL IL-2 (R&D Systems, Minneapolis, Minn.), 50 ng/mL IL-4 (BD Biosciences, San Jose, Calif.), 50 ng/mL IL-21 (Peprotech, Rocky Hill, N.J.), 1000 IU/mL of IFN□ (PBL InterferonSource, Piscataway, N.J.), 5 μg/mL R848 (Invivogen, San Diego, Calif.), and 1 μM thapsigargin (EMD Millipore, Billerica, Mass.). […]
# CD19+CD5+ CLL cells [4] = experiment: SCNP modulated signaling, Example 2 (10-15 min modulation); format: cell-based, human; conditions: SDF1α 10 ng/mL
# Description: Peripheral blood mononuclear cells (PBMCs) were obtained from 29 patients with CLL treated on a clinical trial at “La Sapienza” University of Rome between November 2008 and January 2010 at the time of but prior to the initiation of first treatment. All patients provided informed consent for research purposes. SCNP assays were performed blinded to clinical outcomes. Diagnosis and initiation of treatment for B-CLL were based on 1996 National Cancer Institute-Working Group ([…] 2008 Guidelines for Diagnosis and Treatment of CLL. Clinical and biological disease characteristics at diagnosis are summarized in FIG. 28 IGHV mutational status and expression of CD38 and ZAP-70 were determined. […] SCNP analysis was performed to quantitatively measure intracellular signaling proteins within CD19+CD5+ CLL cells using a panel of disease-relevant modulators. […] Cells were rested for 2 hours at 37° C. followed by modulation. Short duration modulation was performed for 10 minutes at 37° C. with the following modulators: 20 μg/mL polyclonal goat F(ab')2 anti-human IgM (Southern Biotech, Birmingham, Ala.), 5 μg/mL monoclonal anti-human IgD (BD Biosciences, San Jose, Calif.), 10 ng/mL of SDF1[…] (R&D Systems, Minneapolis, Minn.), and the combination of 20 μg/mL polyclonal goat F(ab')2 anti-human IgM and 10 ng/mL of SDF1[…]15 minute modulations were performed for the following: 0.5 μg/mL CD40L (R&D Systems, Minneapolis, Minn.), 50 ng/mL IL-[…] […] The raw instrument fluorescence intensities were converted to calibrated intensity metrics (ERFs, Equivalent Number of Reference Fluorophores). […] The term “signaling node” is used to refer to a proteomic readout in the presence or absence of a specific modulator. For example, the response to anti-IgM modulation can be measured using p-ERK as a readout. […] The term “metric” is used to refer to the quantification method used to evaluate the functional response of signaling proteins. […]
# CD19+CD5+B-CLL cells = experiment: SCNP modulated signaling, Example 3 (B-CLL vs healthy B cells); format: cell-based, human; conditions: CLL samples compared to healthy controls
# Description: Peripheral blood mononuclear cells (PBMCs) were obtained from 39 B-CLL patients between 2006 and 2007, Rai stage 0-II, at different time points during their clinical course but prior to the initiation of treatment. PBMCs from four age-matched healthy donors were collected at the Stanford Blood Center. All donors provided informed consent for research purposes. SCNP assays were performed blinded to clinical data. Diagnosis and initiation of treatment for B-CLL were based on 1996 National Cancer Institute-Working Group (NCI-WG)/IWCLL 2008 Guidelines for Diagnosis and Treatment of CLL. The median age of CLL patients was slightly lower than the typical CLL population (58 years vs 65-70). Of the 39 samples evaluated, 15 expressed CD38 (≧30% of cells) and 20 expressed ZAP-70 (≧20% of cells); 19 were IGHV unmutated (98% cutoff); and the cytogenetic risk groups were evenly represented. IGHV mutational status and expression of CD38 and ZAP-70 were determined. […]
# SCNP analysis quantitatively measured intracellular signaling proteins within CD19+CD5+B-CLL cells using a panel of disease-relevant modulators (FIG. 27, FIG. 35A, B). […]
# Flow cytometry data were gated using WinList (Verity House Software, Topsham, Me.). […] The raw instrument fluorescence intensities were converted to calibrated intensity metrics (ERFs, Equivalent Number of Reference Fluorophores). […]
# [5] = 24 hours, samples with low spontaneous apoptosis
molecule,measurement,setting,value
CC[C@H](Nc1ncnc2[nH]cnc12)c1nc2cccc(F)c2c(=O)n1-c1ccccc1 [CAL-101/GS-1101],CD40L protection from spontaneous apoptosis,CLL cells [1],blocked
"OO [H2O2, hydrogen peroxide]",B cells with activated Syk and BLNK,CLL B cells; sample CLL007 (Group II),approximately 2%
same,B cells with activated Syk and BLNK,CLL B cells; sample CLL021 (Group II),5-6%
same,anti-μ-mediated BCR signaling in presence of H2O2,healthy B cells; B cells from healthy donors,further potentiated
same,response of all signaling molecules except Akt to H2O2 treatment alone,healthy B cells; healthy B cells,minimally responsive
COc1cc(Nc2ncc(F)c(Nc3ccc4c(n3)NC(=O)C(C)(C)O4)n2)cc(OC)c1OC [R406],apoptotic response of CLL cells,CLL cells [2],mediated an apoptotic response
Cn1c(CCCC(=O)O)nc2cc(N(CCCl)CCCl)ccc21 [bendamustine],"induced p-53BP1 signaling, bendamustine versus fludarabine",CD19+CD5+ CLL cells [3]; [5],greater
same,"induced p-H2AX signaling, bendamustine versus fludarabine",CD19+CD5+ CLL cells [3]; [5],equivalent
same,p21 induction in response to bendamustine,"CD19+CD5+ CLL cells [3]; CLL samples with 17p deletion, 24 hour, additional cohort of 7 CLL samples",impaired p21 induction
SDF1α,SDF1α→p-AKT signal,"CD19+CD5+ CLL cells [4]; 10 min, moderate signal",≥ 0.25 log 2Fold
same,SDF1α→p-ERK signal,"CD19+CD5+ CLL cells [4]; 10 min, moderate signal",≥ 0.25 log 2Fold
same,"p-ERK signal, median log 2Fold","CD19+CD5+ CLL cells [4]; 10 min modulation, αIgM 20 μg/mL",0.38 log 2Fold
same,SDF1α→p-AKT modulation as a single stimulus,CD19+CD5+B-CLL cells,weaker in nearly all CLL samples
